Each structure is given as a SMILES string.

T1 sequence (P00746 26-253): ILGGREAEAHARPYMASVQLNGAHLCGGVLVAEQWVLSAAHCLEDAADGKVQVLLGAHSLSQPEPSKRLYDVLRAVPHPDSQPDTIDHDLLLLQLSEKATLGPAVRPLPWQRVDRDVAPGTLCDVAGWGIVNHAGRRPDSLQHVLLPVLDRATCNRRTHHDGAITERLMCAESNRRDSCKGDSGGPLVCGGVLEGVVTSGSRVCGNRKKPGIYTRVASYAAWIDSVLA

This experiment has as its target T1, human complement factor D (Homo sapiens, UniProt P00746).
T1 construct: purchased R&D Systems 1824-SE
Description: In vitro enzyme inhibition (Z-Lys-SBzl/DTNB absorbance assay). The settings on record: Complement Factor D (R&D Systems), substrate Z-Lys-SBzl, A405 nm; read-out: CFD IC50. Format: biochemical. In a few lines:
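Factor D (6.25 ng/μL before addition) preincubated 5 min RT with compound (8 points from 50 μM, 6-fold, 0.5% DMSO final) in 50 mM Tris/HCl pH 7.5, 1 M NaCl, then Z-Lys-SBzl/DTNB added (200 μM each before addition). A405 read kinetically every 30 s for 60 min; IC50 from variable-slope fit, controls with and without enzyme.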
One may read the IC50 as the point on the concentration scale where inhibition reaches its midpoint. In the case of `NCCC(NC(=O)[C@@H]1[C@H]2CC[C@H](C2)N1C(=O)Cn1nc(C(N)=O)c2ccccc21)c1cccc(Cl)c1F` (stereo partly drawn) [Example 145, 1-(2-((1R,3S,4S)-3-((3-amino-1-(3-chloro-2-fluorophenyl)propyl)carbamoyl)-2-azabicyclo[2.2.1]heptan-2-yl)-2-oxoethyl)-1H-indazole-3-carboxamide], the 50% inhibitory concentration (IC50) lay within 1 to 10 µM.
`NC(=O)c1nn(CC(=O)N2[C@@H]3CC[C@@H](C3)[C@H]2C(=O)NC(CCO)c2cccc(Cl)c2F)c2ccccc12` (stereo partly drawn) [Example 146, 1-(2-((1R,3S,4S)-3-((1-(3-chloro-2-fluorophenyl)-3-hydroxypropyl)carbamoyl)-2-azabicyclo[2.2.1]heptan-2-yl)-2-oxoethyl)-1H-indazole-3-carboxamide]: the IC50 fell in the range of 1 to 10 µM.
On to `NC(=O)c1nn(CC(=O)N2CCC3CC32C(=O)NCc2cccc(Cl)c2F)c2ccccc12` (centres unmarked) [Example 147, 1-(2-(1-((3-chloro-2-fluorobenzyl)carbamoyl)-2-azabicyclo[3.1.0]hexan-2-yl)-2-oxoethyl)-1H-indazole-3-carboxamide], for which the IC50 is above 10 µM.
The same measure for `NC(=O)c1nn(CC(=O)N2[C@H]3CC[C@H](CC3)[C@@H]2C(=O)NCc2cccc(Cl)c2F)c2ccccc12` [Example 148, (1S,3R,4S)-2-(2-(3-carbamoyl-1H-indazol-1-yl)acetyl)-N-(3-chloro-2-fluorobenzyl)-2-azabicyclo[2.2.2]octane-3-carboxamide]: 1 to 10 µM; for `NC(=O)c1nn(CC(=O)N2[C@H]3CC[C@H](CC3)[C@@H]2C(=O)Nc2cccc(Cl)c2F)c2ccccc12` [Example 149, (1S,3R,4S)-2-(2-(3-carbamoyl-1H-indazol-1-yl)acetyl)-N-(3-chloro-2-fluorophenyl)-2-azabicyclo[2.2,2]octane-3-carboxamide]: above 10 µM; for `NC(=O)c1nn(CC(=O)N2CC3CC2(C(=O)Nc2cccc(Cl)c2F)C3)c2ccccc12` [Example 150, 2-(2-(3-carbamoyl-1H-indazol-1-yl)acetyl)-N-(3-chloro-2-fluorophenyl)-2-azabicyclo[2.1.1]hexane-1-carboxamide]: above 10 µM.
As for `NC(=O)c1nn(CC(=O)N2CC3CC2(C(=O)Nc2cccc(Cl)n2)C3)c2ccccc12` [Example 151, 2-(2-(3-carbamoyl-1H-indazol-1-yl)acetyl)-N-(6-chloropyridin-2-yl)-2-azabicyclo[2.1.1]hexane-1-carboxamide], the IC50 was in the range of 1 to 10 µM.
As to `NC(=O)c1nn(CC(=O)N2[C@H]3CC[C@H]([C@H](O)C3)[C@@H]2C(=O)NCc2cccc(Cl)c2F)c2ccccc12` [Example 153, (1S,3R,4S,5R)-2-(2-(3-carbamoyl-1H-indazol-1-yl)acetyl)-N-(3-chloro-2-fluorobenzyl)-5-hydroxy-2-azabicyclo[2.2.2]octane-3-carboxamide], the IC50 was above 10 µM.
For `NC(=O)c1nn(CC(=O)N2C(C(=O)NCc3cccc(Cl)n3)[C@@H]3C[C@@H](O)[C@H]2[C@H]3O)c2ccccc12` (stereo partly drawn) [Example 154, 1-(2-((1S,4S,6R,7S)-3-(((6-chloropyridin-2-yl)methyl)carbamoyl)-6,7-dihydroxy-2-azabicyclo[2.2.1]heptan-2-yl)-2-oxoethyl)-1H-indazole-3-carboxamide], the IC50 lay within 1 to 10 µM.
`NC(=O)c1nn(CC(=O)N2[C@H]3CC[C@H](CC3)[C@@H]2C(=O)Nc2cccc(Cl)n2)c2ccccc12` [Example 155, (1S,3R,4S)-2-(2-(3-carbamoyl-1H-indazol-1-yl)acetyl)-N-(6-chloropyridin-2-yl)-2-azabicyclo[2.2.2]octane-3-carboxamide]: the IC50 lay in the range of 1 to 10 µM.
Regarding `NC(=O)c1nn(CC(=O)N2[C@H](C(=O)Nc3cccc(Cl)c3F)C[C@@H]3CCC[C@@H]32)c2ccccc12` [Example 158, 1-(2-((2S,3aS,6aS)-2-((3-chloro-2-fluorophenyl)carbamoyl)hexahydrocyclopenta[b]pyrrol-1(2H)-yl)-2-oxoethyl)-1H-indazole-3-carboxamide], the 50% inhibitory concentration (IC50) fell in the range of 0.1 to 1 µM.

The record behind these values is patent US20190127366A1 (LifeSci Pharmaceuticals, Inc., priority 2015, published 2019).
